Laboratory results as given in patent publication US20020037560A1, “Bicyclic terpenes and synthesis thereof” (priority 2000, published 2002).

Biological target: T1, Tobacco 5-epi-aristolochene synthase (TEAS) (Nicotiana tabacum, UniProt Q40577)
T1 construct: made in house
T1 sequence (Q40577 1-548): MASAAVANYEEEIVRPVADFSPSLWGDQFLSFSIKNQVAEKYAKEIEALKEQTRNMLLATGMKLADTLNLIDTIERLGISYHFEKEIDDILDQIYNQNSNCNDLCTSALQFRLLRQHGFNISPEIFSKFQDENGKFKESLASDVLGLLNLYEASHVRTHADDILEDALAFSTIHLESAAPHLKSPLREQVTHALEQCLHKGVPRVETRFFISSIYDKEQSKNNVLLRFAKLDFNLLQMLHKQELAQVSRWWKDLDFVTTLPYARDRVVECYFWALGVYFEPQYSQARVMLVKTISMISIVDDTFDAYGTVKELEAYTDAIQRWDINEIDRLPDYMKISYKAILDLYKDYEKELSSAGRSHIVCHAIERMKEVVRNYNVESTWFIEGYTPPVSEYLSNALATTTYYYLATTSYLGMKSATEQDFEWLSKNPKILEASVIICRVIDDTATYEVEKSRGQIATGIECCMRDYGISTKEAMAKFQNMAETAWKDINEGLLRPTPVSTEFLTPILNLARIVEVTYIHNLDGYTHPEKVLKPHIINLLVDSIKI
Test: TEAS activity assay (3H-FPP to 3H-5-epi-aristolochene, hexane partitioning)
Assay type: biochemical
Procedure: Kinetic Characterization of the Interaction of AGPP with TEAS. The assay for TEAS activity is based upon partitioning of the hydrophobic product (^3H-5-epi-aristolochene) into an organic solvent while the hydrophilic substrate (^3H-FPP) remains in the aqueous phase (i.e. Vögeli & Chappell, 1988; Back et al., 1994; Mathis et al. 1997). The Ki describing AGPP interaction with TEAS was characterized by measuring initial velocities for a matrix of reactions. Reactions (50 μl) containing 200 mM Tris-Cl, pH 7.5, 40 mM MgCl2, 50-250 nM TEAS, and 0.2 μCi ^3H-FPP, carrier-free or in combination with unlabeled FPP to give final substrate concentrations of 0.2-10 μM. Fixed concentrations of AGPP ranged from 0-150 μM. Reactions were initiated by the addition of enzyme and were incubated for 5 min. at 37° C. Reactions were quenched by vortexing against 150 μl hexane. After a brief centrifugation, 100 μl of the hexane phase was treated with approximately 20 mg of silica powder to remove any contaminating FPP or farnesol, the latter of which may be generated by contaminating phosphatase activity. Following vortexing and a brief centrifugation to pellet the silica, 50 μl of the hexane phase was mixed with 4 ml of liquid scintillation cocktail and analyzed for radioactivity (disintegrations per minute). Determination of reaction rate was based on percent conversion to product, the value for which was obtained by comparing the radioactivity in the hexane extract to that in an untreated aliquot of the assay mixture. […] Data were analyzed using Enzyme Kinetics V 1.5 (Trinity Software).
Kinetic Characterization of the Interaction of AGPP with TEAS. As a synthetic analog of FPP, AGPP (2) may potentially bind within the TEAS active site and thereby inhibit the sesquiterpene synthase activity of this enzyme. The nature of the potential interaction between TEAS and AGPP was characterized through a series of TEAS activity assays in which the ability of TEAS to produce ^3H-5-epi-aristolochene from ^3H-FPP was monitored in the presence of unlabeled AGPP. […]

mode of inhibition of TEAS-catalyzed cyclization of FPP (Lineweaver-Burk plots, FIG. 1) (intersecting Lineweaver-Burk plots) | Ki (recombinant TEAS, 3H-FPP substrate 0.2-10 μM, AGPP 0-150 μM, 5 min at 37° C., read-out: Ki for the inhibition of TEAS activity) | Km (at 37° C., read-out: KM, TEAS utilization of FPP as a substrate) | SMILES
competitive inhibitor | 5.9 ± 1.8 µM |  | C/C(=C\COP(=O)(O)OP(=O)(O)O)CC/C=C(\C)CNc1ccccc1 [AGPP, 8-anilino-geranyl pyrophosphate]
 |  | 5.4 µM | CC(C)=CCC/C(C)=C/CC/C(C)=C/COP(=O)(O)OP(=O)(O)O [FPP]
